Data published in patent publication US12370235B2, “Synthetic, non-natural antimicrobial peptides inspired by Staphylococcus auricularis delta toxin” (University of Saskatchewan, priority 2021, dated 2025).
Values after ≈ are worked out from the molar mass of the structure shown. Square brackets hold non-standard residues; d marks the D form. Peptide text beside a SMILES is read from it.

Assays:
[1] = system: S. aureus ATCC 29213; test: MIC, broth dilution; format: cell-based, Staphylococcus aureus; conditions: Table 5; STIP3 variants, highest concentration 100 μg/mL
How it was run: (§1)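 MIC defined as the lowest peptide level giving no growth after overnight standing incubation at 37° C. Bacteria at OD 6×10^−4 in cation-adjusted MH broth met 2-fold serial peptide dilutions; peptide purity 95%.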

[2] = system: S. aureus ATCC 33592 (MRSA SCCmec type III); test: MIC, broth dilution; format: cell-based, Staphylococcus aureus; conditions: Table 5; STIP3 variants, highest concentration 100 μg/mL
How it was run: as §1

[3] = system: S. aureus ATCC BAA-1683 (MRSA SCCmec type IV); test: MIC, broth dilution; format: cell-based, Staphylococcus aureus; conditions: Table 5; STIP3 variants, highest concentration 100 μg/mL
How it was run: as §1

[4] = system: S. aureus ATCC BAA-2094 (MRSA SCCmec type V); test: MIC, broth dilution; format: cell-based, Staphylococcus aureus; conditions: Table 5; STIP3 variants, highest concentration 100 μg/mL
How it was run: as §1

[5] = system: S. aureus ATCC BAA-2313 (MRSA SCCmec type XI); test: MIC, broth dilution; format: cell-based, Staphylococcus aureus; conditions: Table 5; STIP3 variants, highest concentration 100 μg/mL
How it was run: as §1

[6] = system: S. aureus ATCC BAA-41 (MRSA SCCmec type II); test: MIC, broth dilution; format: cell-based, Staphylococcus aureus; conditions: Table 5; STIP3 variants, highest concentration 100 μg/mL
How it was run: as §1

[7] = system: S. aureus ATCC BAA-42 (MRSA SCCmec type VI); test: MIC, broth dilution; format: cell-based, Staphylococcus aureus; conditions: Table 5; STIP3 variants, highest concentration 100 μg/mL
How it was run: as §1

[8] = system: S. aureus ATCC BAA-44 (MRSA SCCmec type I); test: MIC, broth dilution; format: cell-based, Staphylococcus aureus; conditions: Table 5; STIP3 variants, highest concentration 100 μg/mL
How it was run: as §1

[9] = system: S. aureus / MRSA (ATCC MP-2 panel); format: cell-based, Staphylococcus aureus; conditions: in words
How it was run: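 MIC by broth microdilution in cation-adjusted Mueller Hinton broth: cultures diluted to OD 6×10^−4 and exposed to 2-fold peptide dilution series, standing overnight at 37° C. MIC = lowest peptide concentration with no visible growth. Panel: one methicillin-sensitive S. aureus plus 7 MRSA strains of distinct SCCmec genotypes.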

[10] = system: C. albicans MYA-2876; test: MIC, YPD broth; format: cell-based, Candida albicans; conditions: Table 8
How it was run: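 Minimum inhibitory concentrations against Candida albicans were determined in YPD broth (10 g/L yeast extract, 20 g/L peptone, 20 g/L dextrose) using peptides of 95% purity. A 180 μl volume of diluted yeast was combined with 20 μl of peptide in a 2-fold dilution series in 96-well plates, with sterile water as control, then incubated standing overnight at 37° C.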

[11] = system: C. albicans Y537; test: MIC, YPD broth; format: cell-based, Candida albicans; conditions: Table 8
[12] = Circular dichroism spectroscopy; format: physicochemical; conditions: CD, 50% (v/v) TFE
How it was run: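 Secondary structure of peptides dissolved in water at 0.3–0.5 mg/mL was assessed by CD. Spectra were recorded from 180 to 260 nm at room temperature in a 0.1 cm quartz cuvette; water and 50% (v/v) TFE conditions were compared.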

[13] = system: MRSA ATCC 33592; test: SYTOX Green membrane integrity assay; format: cell-based, Staphylococcus aureus; conditions: one fourth to four-fold the MIC
Experimental: (§2) Membrane disruption and depolarization are commonly reported mechanisms of AMP action. Two indirect assays that rely on fluorescent dyes were employed to assess the interaction of STIP3-29 and D-STIP3-29 with bacterial membranes. First, changes to SYTOX fluorescence was measured when MRSA ATCC 33592 was treated with increasing peptide concentrations ranging from one fourth to four-fold the MIC. […] Next, DiSC3(5), a cationic dye that binds to polarized membranes was used to report on possible depolarization related to AMP treatment. […] Thus, without wishing to be bound by theory, a more conservative explanation of the results is that the cationic peptides increase membrane permeability to SYTOX and that the like-charge of the AMPs to the reporter of polarization may confound the interpretation of the indirect assay. For example, the AMPs may simply displace the self-quenching DiSC3(5) molecules from the membrane surface without causing depolarization.

[14] = system: MRSA ATCC 33592; test: DiSC3(5) membrane polarization assay; format: cell-based, Staphylococcus aureus; conditions: 1.56 to 25 μg/mL
Experimental: as §2

[15] = system: HeLa cells; format: cell-based; conditions: 24 h, alamarBlue
Experimental: Peptide cytotoxicity. In vitro cytotoxicity was measured using the 3D EpiDerm skin tissues and HeLa Cells using a fluorescent reporter of cell viability, alamarBlue (ThermoFisher Scientific). 3D EpiDerm skin tissues (MatTek EPI-200-AFAB) were transferred to a 12 well plate containing 600 μL of AFAB-assay medium supplemented with 10% v/v alamarBlue. […] HeLa cells were seeded in a 96-well plate (2×10^4 cells/per well) and incubated overnight at 37° C. and 5% CO2 in a humidified incubator to prepare wells at ˜50% confluency of adherent cells. After the incubation, spent DMEM was removed and cells were washed with PBS. alamarBlue-containing medium was prepared by mixing Phenol Red-free DMEM with alamarBlue solution at a 9:1 ratio and a 180 μl volume was added to each well. Cells were treated with peptides varying from 3.25 to 200 μg/mL and then incubated for 24 h. The fluorescence intensities of treated cultures were normalized to values measured for an untreated control group. After the 24 h incubation period, alamarBlue fluorescence was measured at 590 nm upon excitation at 560 nm using Varioskan Lux plate reader (Thermo Scientific) plate reader.

CC[C@@H](C)[C@@H](NC(=O)[C@@H](Cc1c[nH]c2ccccc12)NC(=O)[C@@H](CCCCN)NC(=O)[C@H](NC(=O)[C@@H](CC(C)C)NC(=O)CNC(=O)CNC(=O)[C@H](NC(=O)[C@H](N)[C@H](C)O)C(C)C)C(C)C)C(=O)N[C@H](CC(C)C)C(=O)N[C@H](CCCCN)C(=O)N[C@@H](C(=O)N[C@@H](C(=O)N[C@H](CCCCN)C(=O)N[C@H](CCCCN)C(=O)N[C@H](Cc1ccccc1)C(=O)N[C@H](C)C(N)=O)C(C)C)[C@H](C)O [D-STIP3-29, TVGGLVKWILKTVKKFA-NH2] (H-[dT][dV]GG[dL][dV][dK][dW][dI][dL][dK][dT][dV][dK][dK][dF][dA]-NH2; N-terminus assumed)
MIC S. aureus ATCC 29213 [1]: 6.25 µg/mL (≈ 3.31 µM)
MIC S. aureus ATCC 33592 (III) [2]: 6.25 µg/mL (≈ 3.31 µM)
MIC S. aureus ATCC BAA 1683 (IV) [3]: 6.25 µg/mL (≈ 3.31 µM)
MIC S. aureus ATCC BAA 2094 (V) [4]: 6.25 µg/mL (≈ 3.31 µM)
MIC S. aureus ATCC BAA 2313 (XI) [5]: 6.25 µg/mL (≈ 3.31 µM)
MIC S. aureus ATCC BAA 41 (II) [6]: 6.25 µg/mL (≈ 3.31 µM)
MIC S. aureus ATCC BAA 42 (VI) [7]: 6.25 µg/mL (≈ 3.31 µM)
MIC S. aureus ATCC BAA 44 (I) [8]: 12.5 µg/mL (≈ 6.62 µM)
activity relative to the L-enantiomer [9]: just as active as the L-enantiomer
MIC C. albicans MYA-2876 [10]: 50 µg/mL (≈ 26.5 µM)
MIC C. albicans Y537 [11]: 50 µg/mL (≈ 26.5 µM)
α helicity (%) [12]: 47%
SYTOX fluorescence change [13]: rapid and concentration dependent increase in SYTOX fluorescence
DiSC3(5) fluorescence change [14]: dose-dependent increase in fluorescence
IC50, HeLa cell survival [15]: 39 ± 3 µg/mL (≈ 20.7 µM)
